According to patent publication US20260053811A1, “METHODS OF TREATING HYPERTENSION IN OBESE SUBJECTS” (Mineralys Therapeutics, Inc., priority 2022, published 2026):
Values joined by “and” are separate entries in the source; they are usually repeats but may differ in a detail not shown here. Equal values may be shown once.

Assays:
Format in all cases: in vivo, human
[1] = tested on: 11-deoxycortisol; assay: Plasma 11-deoxycortisol (pharmacodynamic response); details: for 11-Deoxycortisol, Mean (SD) Observed / 11-Deoxycortisol, Mean (SD) Percent Change from Baseline: Part 1; for 11-Deoxycortisol, Mean Observed / 11-Deoxycortisol, Mean Percent Change from Baseline: Part 2
Source text: (§1) PK/PD Analysis Set includes all subjects in the SAF who have sufficient data available for the analysis of pharmacokinetic and pharmacodynamic measurements. In the analyses based on PKPD, subjects will be analyzed according to the actual treatment received.

[2] = tested on: serum cortisol; assay: Serum cortisol (pharmacodynamic response); details: for Serum cortisol percent change from baseline / Cortisol, Mean Observed / Cortisol, Mean Percent Change from Baseline: Part 2; for Serum cortisol percent change from baseline, range across active arms / Cortisol, Mean (SD) Observed / Cortisol, Mean (SD) Percent Change from Baseline: Part 1
Source text: as §1

[3] = tested on: serum aldosterone; assay: Serum aldosterone (pharmacodynamic response); details: for Reduction in median serum aldosterone compared to baseline: week 4, low renin subjects (Part-1); for Aldosterone levels, change relative to baseline, range across active arms / Aldosterone, Mean (SD) Observed / Aldosterone, Mean (SD) Percent Change from Baseline: Part 1; for Aldosterone, Mean Observed / Aldosterone, Mean Percent Change from Baseline: Part 2
Source text: as §1

CC(=O)N[C@H]1CC[C@H](NC(=O)CN2CCN(c3nncc(-c4ccc(C)cc4)n3)CC2)CC1 [Compound A HBr]
11-Deoxycortisol, Mean (SD) Observed ([1]; Wk 4, 12.5 mg BID): 24.89 (18.99) ng/dL
11-Deoxycortisol, Mean (SD) Percent Change from Baseline ([1]; Wk 4, 12.5 mg BID): 22.56 (118.56) %
11-Deoxycortisol, Mean (SD) Observed ([1]; Wk 4, 12.5 mg QD): 24.21 (19.92) ng/dL
11-Deoxycortisol, Mean (SD) Percent Change from Baseline ([1]; Wk 4, 12.5 mg QD): 10.07 (76.22) %
11-Deoxycortisol, Mean (SD) Observed ([1]; Wk 4, 25 mg BID): 35.23 (33.00) ng/dL
11-Deoxycortisol, Mean (SD) Percent Change from Baseline ([1]; Wk 4, 25 mg BID): 40.12 (118.32) %
11-Deoxycortisol, Mean (SD) Observed ([1]; Wk 4, 50 mg QD): 27.15 (13.97) ng/dL
11-Deoxycortisol, Mean (SD) Percent Change from Baseline ([1]; Wk 4, 50 mg QD): 10.80 (61.95) %
11-Deoxycortisol, Mean (SD) Observed ([1]; Wk 4, 100 mg QD): 29.29 (23.99) ng/dL
11-Deoxycortisol, Mean (SD) Percent Change from Baseline ([1]; Wk 4, 100 mg QD): 9.43 (60.26) %
11-Deoxycortisol, Mean (SD) Observed ([1]; Wk 12, 12.5 mg BID): 20.94 (10.27) ng/dL
11-Deoxycortisol, Mean (SD) Percent Change from Baseline ([1]; Wk 12, 12.5 mg BID): −14.58 (33.13) %
11-Deoxycortisol, Mean (SD) Observed ([1]; Wk 12, 12.5 mg QD): 31.56 (29.77) ng/dL
11-Deoxycortisol, Mean (SD) Percent Change from Baseline ([1]; Wk 12, 12.5 mg QD): 58.62 (122.14) %
11-Deoxycortisol, Mean (SD) Observed ([1]; Wk 12, 25 mg BID): 31.55 (26.82) ng/dL
11-Deoxycortisol, Mean (SD) Percent Change from Baseline ([1]; Wk 12, 25 mg BID): 26.81 (72.59) %
11-Deoxycortisol, Mean (SD) Observed ([1]; Wk 12, 50 mg QD): 26.15 (18.89) ng/dL
11-Deoxycortisol, Mean (SD) Percent Change from Baseline ([1]; Wk 12, 50 mg QD): 9.25 (111.16) %
11-Deoxycortisol, Mean (SD) Observed ([1]; Wk 12, 100 mg QD): 31.17 (25.98) ng/dL
11-Deoxycortisol, Mean (SD) Percent Change from Baseline ([1]; Wk 12, 100 mg QD): 22.05 (64.71) %
11-deoxycortisol compared with placebo ([1]; Part 1 active treatment arms, Week 4): Transient increases
11-Deoxycortisol, Mean Observed ([1]; Wk 4, 100 mg QD): 35.96 ng/dL
11-Deoxycortisol, Mean Percent Change from Baseline ([1]; Wk 4, 100 mg QD): 22.95%
11-Deoxycortisol, Mean Observed ([1]; Wk 10, 100 mg QD): 27.60 ng/dL
11-Deoxycortisol, Mean Percent Change from Baseline ([1]; Wk 10, 100 mg QD): −2.13%
Serum cortisol percent change from baseline ([2]; 100 mg QD, Week 4): 20.1%
Serum cortisol percent change from baseline ([2]; 100 mg QD, Week 8): 153.4%
Serum cortisol percent change from baseline ([2]; 100 mg QD, Week 12): 1.5%
Serum cortisol percent change from baseline, range across active arms ([2]; Week 4): 3.8% to 19.2%
Serum cortisol percent change from baseline, range across active arms ([2]; Week 8): 20.6% to 51.4%
Serum cortisol percent change from baseline, range across active arms ([2]; Week 12, listed as lorundrostat): −1.2% to 22.7% and −1.2 to 22.6%
Cortisol, Mean (SD) Observed ([2]; Wk 4, 12.5 mg BID): 10.895 (3.859) μg/dL
Cortisol, Mean (SD) Percent Change from Baseline ([2]; Wk 4, 12.5 mg BID): 10.26 (45.03) %
Cortisol, Mean (SD) Observed ([2]; Wk 4, 12.5 mg QD): 9.305 (4.164) μg/dL
Cortisol, Mean (SD) Percent Change from Baseline ([2]; Wk 4, 12.5 mg QD): 7.47 (37.82) %
Cortisol, Mean (SD) Observed ([2]; Wk 4, 25 mg BID): 12.311 (5.180) μg/dL
Cortisol, Mean (SD) Percent Change from Baseline ([2]; Wk 4, 25 mg BID): 19.20 (49.39) %
Cortisol, Mean (SD) Observed ([2]; Wk 4, 50 mg QD): 10.875 (3.368) μg/dL
Cortisol, Mean (SD) Percent Change from Baseline ([2]; Wk 4, 50 mg QD): 3.83 (32.48) %
Cortisol, Mean (SD) Observed ([2]; Wk 4, 100 mg QD): 11.842 (4.350) μg/dL
Cortisol, Mean (SD) Percent Change from Baseline ([2]; Wk 4, 100 mg QD): 3.91 (32.33) %
Cortisol, Mean (SD) Observed ([2]; Wk 8, 12.5 mg BID): 12.316 (7.649) μg/dL
Cortisol, Mean (SD) Percent Change from Baseline ([2]; Wk 8, 12.5 mg BID): 20.56 (73.01) %
Cortisol, Mean (SD) Observed ([2]; Wk 8, 12.5 mg QD): 12.511 (8.784) μg/dL
Cortisol, Mean (SD) Percent Change from Baseline ([2]; Wk 8, 12.5 mg QD): 41.84 (90.37) %
Cortisol, Mean (SD) Observed ([2]; Wk 8, 25 mg BID): 15.525 (8.258) μg/dL
Cortisol, Mean (SD) Percent Change from Baseline ([2]; Wk 8, 25 mg BID): 49.57 (77.17) %
Cortisol, Mean (SD) Observed ([2]; Wk 8, 50 mg QD): 15.650 (7.102) μg/dL
Cortisol, Mean (SD) Percent Change from Baseline ([2]; Wk 8, 50 mg QD): 51.35 (78.86) %
Cortisol, Mean (SD) Observed ([2]; Wk 8, 100 mg QD): 16.680 (9.083) μg/dL
Cortisol, Mean (SD) Percent Change from Baseline ([2]; Wk 8, 100 mg QD): 47.29 (92.65) %
Cortisol, Mean (SD) Observed ([2]; Wk 12, 12.5 mg BID): 9.978 (2.742) μg/dL
Cortisol, Mean (SD) Percent Change from Baseline ([2]; Wk 12, 12.5 mg BID): −1.22 (21.10) %
Cortisol, Mean (SD) Observed ([2]; Wk 12, 12.5 mg QD): 9.317 (3.294) μg/dL
Cortisol, Mean (SD) Percent Change from Baseline ([2]; Wk 12, 12.5 mg QD): 18.06 (48.59) %
Cortisol, Mean (SD) Observed ([2]; Wk 12, 25 mg BID): 12.559 (4.287) μg/dL
Cortisol, Mean (SD) Percent Change from Baseline ([2]; Wk 12, 25 mg BID): 22.65 (41.94) %
Cortisol, Mean (SD) Observed ([2]; Wk 12, 50 mg QD): 11.262 (3.590) μg/dL
Cortisol, Mean (SD) Percent Change from Baseline ([2]; Wk 12, 50 mg QD): 6.91 (35.36) %
Cortisol, Mean (SD) Observed ([2]; Wk 12, 100 mg QD): 12.680 (5.659) μg/dL
Cortisol, Mean (SD) Percent Change from Baseline ([2]; Wk 12, 100 mg QD): 8.40 (30.09) %
Cortisol, Mean Observed ([2]; Wk 4, 100 mg QD): 13.464 µg/dL
Cortisol, Mean Percent Change from Baseline ([2]; Wk 4, 100 mg QD): 20.10%
Cortisol, Mean Observed ([2]; Wk 8, 100 mg QD): 25.393 µg/dL
Cortisol, Mean Percent Change from Baseline ([2]; Wk 8, 100 mg QD): 153.35%
Cortisol, Mean Observed ([2]; Wk 10, 100 mg QD): 10.763 µg/dL
Cortisol, Mean Percent Change from Baseline ([2]; Wk 10, 100 mg QD): 1.45%
Effects on serum cortisol ([2]; pooled (Part 1 and Part 2) 100 mg QD safety set (n=60)): no effects on serum cortisol
Effects on serum cortisol ([2]; safety dataset, complete analysis): no effects on serum cortisol
Morning serum cortisol levels ([2]; summary of trial): modestly increased
Reduction in median serum aldosterone compared to baseline ([3]; 25 mg BID): 9.6%
Reduction in median serum aldosterone compared to baseline ([3]; 50 mg QD): 65.2%
Reduction in median serum aldosterone compared to baseline ([3]; 100 mg QD): 70.0%
Aldosterone levels, change relative to baseline, range across active arms ([3]; Week 4): −40.1% to 7.4%
Aldosterone levels, change relative to baseline, range across active arms ([3]; Week 12): −26.6% to 15.9%
Aldosterone, Mean (SD) Observed ([3]; Wk 4, 12.5 mg BID): 4.447 (3.681) ng/dL
Aldosterone, Mean (SD) Percent Change from Baseline ([3]; Wk 4, 12.5 mg BID): −37.86 (35.66) %
Aldosterone, Mean (SD) Observed ([3]; Wk 4, 12.5 mg QD): 6.132 (4.606) ng/dL
Aldosterone, Mean (SD) Percent Change from Baseline ([3]; Wk 4, 12.5 mg QD): 7.39 (91.87) %
Aldosterone, Mean (SD) Observed ([3]; Wk 4, 25 mg BID): 3.192 (3.274) ng/dL
Aldosterone, Mean (SD) Percent Change from Baseline ([3]; Wk 4, 25 mg BID): 1.66 (233.60) %
Aldosterone, Mean (SD) Observed ([3]; Wk 4, 50 mg QD): 3.923 (5.283) ng/dL
Aldosterone, Mean (SD) Percent Change from Baseline ([3]; Wk 4, 50 mg QD): −40.06 (70.25) %
Aldosterone, Mean (SD) Observed ([3]; Wk 4, 100 mg QD): 4.000 (4.252) ng/dL
Aldosterone, Mean (SD) Percent Change from Baseline ([3]; Wk 4, 100 mg QD): −32.18 (75.13) %
Aldosterone, Mean (SD) Observed ([3]; Wk 12, 12.5 mg BID): 6.765 (4.085) ng/dL
Aldosterone, Mean (SD) Percent Change from Baseline ([3]; Wk 12, 12.5 mg BID): 1.97 (66.85) %
Aldosterone, Mean (SD) Observed ([3]; Wk 12, 12.5 mg QD): 6.833 (4.743) ng/dL
Aldosterone, Mean (SD) Percent Change from Baseline ([3]; Wk 12, 12.5 mg QD): 15.91 (67.68) %
Aldosterone, Mean (SD) Observed ([3]; Wk 12, 25 mg BID): 4.983 (3.432) ng/dL
Aldosterone, Mean (SD) Percent Change from Baseline ([3]; Wk 12, 25 mg BID): −10.10 (66.83) %
Aldosterone, Mean (SD) Observed ([3]; Wk 12, 50 mg QD): 5.385 (4.087) ng/dL
Aldosterone, Mean (SD) Percent Change from Baseline ([3]; Wk 12, 50 mg QD): −3.75 (56.02) %
Aldosterone, Mean (SD) Observed ([3]; Wk 12, 100 mg QD): 4.563 (2.868) ng/dL
Aldosterone, Mean (SD) Percent Change from Baseline ([3]; Wk 12, 100 mg QD): −26.56 (37.55) %
Aldosterone, Mean Observed ([3]; Wk 4, 100 mg QD): 5.060 ng/dL
Aldosterone, Mean Percent Change from Baseline ([3]; Wk 4, 100 mg QD): −6.05%
Aldosterone, Mean Observed ([3]; Wk 10, 100 mg QD): 4.929 ng/dL
Aldosterone, Mean Percent Change from Baseline ([3]; Wk 10, 100 mg QD): −4.06%
Serum aldosterone levels, pharmacodynamic response ([3]; across doses): dose-dependent reduction in serum aldosterone levels
